The source of these data is patent US8524465B2, “Agonists of bitter taste receptors and uses thereof” (Deutsches Institut fuer Ernaehrungsforschung …, priority 2007, dated 2013).

The target in assay [1] is T1, TAS2R10 (Homo sapiens, UniProt Q9NYW0, T156M).
T1 construct: expressed in transfected cells; host or cells: HEK-293T cells stably expressing the chimeric G-protein subunit Gα16gust44
T1 sequence (Q9NYW0 1-307 T156M): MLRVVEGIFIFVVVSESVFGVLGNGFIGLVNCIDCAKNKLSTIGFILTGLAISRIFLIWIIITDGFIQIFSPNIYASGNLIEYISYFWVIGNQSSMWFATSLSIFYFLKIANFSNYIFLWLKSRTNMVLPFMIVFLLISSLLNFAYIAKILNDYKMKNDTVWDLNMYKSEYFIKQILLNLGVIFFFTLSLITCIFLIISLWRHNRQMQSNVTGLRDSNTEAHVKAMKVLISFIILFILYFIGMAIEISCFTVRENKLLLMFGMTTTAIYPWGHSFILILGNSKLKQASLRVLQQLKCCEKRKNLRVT
Nature of the assay: FLIPR calcium imaging, HEK-293T Gα16gust44 cells expressing TAS2R10. It is filed as cell-based. The protocol:
(§1) Tastants (Sigma-Aldrich, Taufkirchen, Germany) were dissolved and administered in the following (in mM): 130 NaCl, 5 KCl, 10 HEPES, 2 CaCl2, and 10 mM glucose, pH7.4. Data were collected from 1-2 independent experiments performed at least in triplicate and processed with SigmaPlot (SPSS, Chicago, Ill.). For dose-response curve calculation, the peak fluorescence responses after compound addition were corrected for and normalized to background fluorescence (ΔF/F=(F−F0)/F0), and baseline noise was subtracted.
(§2) All 25 human bitter taste receptors were challenged with 100 μM artemorin (FIG. 1) in a FLIPR calcium imaging experiment.

Assay [2] has as its target T2, TAS2R14 (Homo sapiens, UniProt Q9NYV8).
T2 construct: expressed in transfected cells; host or cells: HEK-293T cells stably expressing the chimeric G-protein subunit Gα16gust44
T2 sequence (Q9NYV8 1-317): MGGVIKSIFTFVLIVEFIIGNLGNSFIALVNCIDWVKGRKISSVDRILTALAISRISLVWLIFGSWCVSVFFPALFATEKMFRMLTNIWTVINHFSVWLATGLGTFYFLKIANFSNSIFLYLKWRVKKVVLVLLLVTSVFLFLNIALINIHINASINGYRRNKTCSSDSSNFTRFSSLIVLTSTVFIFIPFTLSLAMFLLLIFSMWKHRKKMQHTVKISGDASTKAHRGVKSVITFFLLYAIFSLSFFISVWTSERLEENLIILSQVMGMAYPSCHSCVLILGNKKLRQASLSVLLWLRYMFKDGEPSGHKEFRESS
The assay is described as follows: FLIPR calcium imaging, HEK-293T Gα16gust44 cells expressing TAS2R14. It is filed as cell-based. The settings on record: for molar range at which TAS2R14 responded to the bitter substance: calcium response, transfected HEK-293T Gα16gust44 cells, FLIPR. The method, then: as §1, §2

Assay [3] concerns the target T3, TAS2R4 (Homo sapiens, UniProt Q9NYW5).
T3 construct: expressed in transfected cells; host or cells: HEK-293T cells stably expressing the chimeric G-protein subunit Gα16gust44
T3 sequence (Q9NYW5 1-299): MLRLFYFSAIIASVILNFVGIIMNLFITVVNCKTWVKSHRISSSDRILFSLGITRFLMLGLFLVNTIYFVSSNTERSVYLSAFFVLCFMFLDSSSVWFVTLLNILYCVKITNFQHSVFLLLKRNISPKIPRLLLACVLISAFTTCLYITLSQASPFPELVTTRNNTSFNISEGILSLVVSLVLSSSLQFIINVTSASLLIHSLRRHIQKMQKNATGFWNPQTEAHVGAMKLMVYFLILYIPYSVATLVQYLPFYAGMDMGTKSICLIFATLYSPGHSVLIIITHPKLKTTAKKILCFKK
Nature of the assay: FLIPR calcium imaging, HEK-293T Gα16gust44 cells expressing TAS2R4. It is filed as cell-based. The method, then: as §1, §2

Assay [4] has as its system mock-transfected cells. The settings on record: 1 mM PROP. The protocol: as §1, §2
Setting [5] is: challenged with 100 μM artemorin, FIG. 2.

`C=C1C(=O)O[C@@H]2[C@H]3C(C)=CC[C@@]34O[C@@]4(C)CC[C@@H]12` [Arglabin]: the “molar range at which TAS2R10 responded to the bitter substance” value in assay [1] (calcium response, transfected HEK-293T Gα16gust44 cells, FLIPR) turned out to be 0.1 mM. Also, the “molar range at which TAS2R14 responded to the bitter substance” value in assay [2] is 0.1 mM.

For the molecule `CCNC(=S)NCC` [N,N′-Diethylthiourea], the “molar range at which TAS2R14 responded to the bitter substance” value in assay [2] worked out at 10 mM.

Consider `C=C1CC[C@H]2C(=C)C(=O)O[C@@H]2/C=C(\C)CC[C@H]1O` [artemorin], for which, in assay [3] (setting [5]), the “receptor response in FLIPR calcium imaging experiment (TAS2R4)” value is given as “responded to artemorin in a dose-dependent manner”. For the same molecule, the “receptor response in FLIPR calcium imaging experiment (TAS2R10)” value in assay [1] (setting [5]) was “responded to artemorin in a dose-dependent manner”. Further, in assay [2] (setting [5]), the “receptor response in FLIPR calcium imaging experiment (TAS2R14)” value is “responded to artemorin in a dose-dependent manner”.

For `CCCc1cc(=O)[nH]c(=S)[nH]1` [propylthiouracil], in assay [3] (result in words), the “calcium responses in TAS2R4-expressing cells” value was “very small (somewhat questionable) and no dose-dependency can be shown”. Also, the “signals of mock-transfected cells” value in assay [4] was “elicits endogenous signals of mock-transfected cells”.
